Measurements reported in PubChem BioAssay (NCI).
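In this assay, cells in 96-well plates receive the compound at five concentrations for 48 hours. Endpoints are linearly interpolated between the surrounding concentrations. Here, GI50 denotes the concentration required for 50% inhibition of growth. TGI: total growth inhibition.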

What was measured:
Experiment in all cases: inhibition of tumour cell growth, NCI panel, 48 h
[1] = tested on: 786-0 renal
[2] = tested on: A498 renal
[3] = tested on: A549 NSCLC
[4] = tested on: ACHN renal
[5] = tested on: BT-549 breast
[6] = tested on: CAKI-1 renal
[7] = tested on: CCRF-CEM leukemia
[8] = tested on: COLO 205 colon
[9] = tested on: DU-145 prostate
[10] = tested on: HCC-2998 colon
[11] = tested on: HCT-116 colon
[12] = tested on: HCT-15 colon
[13] = tested on: HL-60(TB) leukemia
[14] = tested on: HOP-62 NSCLC
[15] = tested on: HOP-92 NSCLC
[16] = tested on: HS 578T breast
[17] = tested on: HT29 colon
[18] = tested on: IGROV1 ovarian
[19] = tested on: K-562 leukemia
[20] = tested on: KM12 colon
[21] = tested on: LOX IMVI melanoma
[22] = tested on: M14 melanoma
[23] = tested on: MALME-3M melanoma
[24] = tested on: MCF7 breast
[25] = tested on: MDA-MB-231 breast
[26] = tested on: MDA-MB-435
[27] = tested on: MOLT-4 leukemia
[28] = tested on: NCI-H226 lung
[29] = tested on: NCI-H460 lung
[30] = tested on: NCI-H522 lung
[31] = tested on: NCI/ADR-RES ovarian
[32] = tested on: OVCAR-3 ovarian
[33] = tested on: OVCAR-4 ovarian
[34] = tested on: OVCAR-5 ovarian
[35] = tested on: OVCAR-8 ovarian
[36] = tested on: PC-3 prostate
[37] = tested on: RPMI-8226 leukemia
[38] = tested on: RXF 393 renal
[39] = tested on: SF-268 CNS
[40] = tested on: SF-295 CNS
[41] = tested on: SF-539 CNS
[42] = tested on: SK-MEL-2 melanoma
[43] = tested on: SK-MEL-28 melanoma
[44] = tested on: SK-MEL-5 melanoma
[45] = tested on: SK-OV-3 ovarian
[46] = tested on: SN12C renal
[47] = tested on: SNB-19 CNS
[48] = tested on: SNB-75 CNS
[49] = tested on: SR leukemia
[50] = tested on: SW-620 colon
[51] = tested on: T-47D breast
[52] = tested on: U251 CNS
[53] = tested on: UACC-257 melanoma
[54] = tested on: UACC-62 melanoma
[55] = tested on: UO-31 renal

Molecule C=CN(C)S(C)(=O)=O has a GI50 [1] of over 100 µM, a TGI [1] of over 100 µM and a GI50 [2] of over 100 µM. The TGI [2] was over 100 µM, the GI50 [3] was over 100 µM and the TGI [3] was over 100 µM. It also gave a GI50 [4] of over 100 µM, a TGI [4] of over 100 µM and a GI50 [5] of over 100 µM. The TGI [5] was over 100 µM, the GI50 [6] was over 100 µM and the TGI [6] was over 100 µM. It also gave a GI50 [7] of over 100 µM, a TGI [7] of over 100 µM and a GI50 [8] of over 100 µM. For the same molecule, the TGI [8] was over 100 µM, the GI50 [9] was over 100 µM and the TGI [9] was over 100 µM. It also gave a GI50 [10] of over 100 µM, a TGI [10] of over 100 µM and a GI50 [11] of over 100 µM. The TGI [11] was over 100 µM, the GI50 [12] was over 100 µM and the TGI [12] was over 100 µM. For the same molecule, the GI50 [13] was over 100 µM, the TGI [13] was over 100 µM and the GI50 [14] was over 100 µM. It also gave a TGI [14] of over 100 µM, a GI50 [15] of over 100 µM and a TGI [15] of over 100 µM. For the same molecule, the GI50 [16] was over 100 µM, the TGI [16] was over 100 µM and the GI50 [17] was over 100 µM. The TGI [17] was over 100 µM, the GI50 [18] was over 100 µM and the TGI [18] was over 100 µM. For the same molecule, the GI50 [19] was over 100 µM, the TGI [19] was over 100 µM and the GI50 [20] was over 100 µM. It also gave a TGI [20] of over 100 µM, a GI50 [21] of over 100 µM and a TGI [21] of over 100 µM. The GI50 [22] was over 100 µM, the TGI [22] was over 100 µM and the GI50 [23] was over 100 µM. It also gave a TGI [23] of over 100 µM, a GI50 [24] of over 100 µM and a TGI [24] of over 100 µM. The GI50 [25] was over 100 µM, the TGI [25] was over 100 µM and the GI50 [26] was over 100 µM. For the same molecule, the TGI [26] was over 100 µM, the GI50 [27] was over 100 µM and the TGI [27] was over 100 µM. The GI50 [28] was over 100 µM, the TGI [28] was over 100 µM and the GI50 [29] was over 100 µM. For the same molecule, the TGI [29] was over 100 µM, the GI50 [30] was over 100 µM and the TGI [30] was over 100 µM. The GI50 [31] was over 100 µM, the TGI [31] was over 100 µM and the GI50 [32] was over 100 µM. The TGI [32] was over 100 µM, the GI50 [33] was over 100 µM and the TGI [33] was over 100 µM. For the same molecule, the GI50 [34] was over 100 µM, the TGI [34] was over 100 µM and the GI50 [35] was over 100 µM. For the same molecule, the TGI [35] was over 100 µM, the GI50 [36] was over 100 µM and the TGI [36] was over 100 µM. For the same molecule, the GI50 [37] was over 100 µM, the TGI [37] was over 100 µM and the GI50 [38] was over 100 µM. For the same molecule, the TGI [38] was over 100 µM, the GI50 [39] was over 100 µM and the TGI [39] was over 100 µM. It also gave a GI50 [40] of over 100 µM, a TGI [40] of over 100 µM and a GI50 [41] of over 100 µM. It also gave a TGI [41] of over 100 µM, a GI50 [42] of over 100 µM and a TGI [42] of over 100 µM. It also gave a GI50 [43] of over 100 µM, a TGI [43] of over 100 µM and a GI50 [44] of over 100 µM. For the same molecule, the TGI [44] was over 100 µM, the GI50 [45] was over 100 µM and the TGI [45] was over 100 µM. It also gave a GI50 [46] of over 100 µM, a TGI [46] of over 100 µM and a GI50 [47] of over 100 µM. For the same molecule, the TGI [47] was over 100 µM, the GI50 [48] was over 100 µM and the TGI [48] was over 100 µM. For the same molecule, the GI50 [49] was over 100 µM, the TGI [49] was over 100 µM and the GI50 [50] was over 100 µM. The TGI [50] was over 100 µM, the GI50 [51] was over 100 µM and the TGI [51] was over 100 µM. The GI50 [52] was over 100 µM, the TGI [52] was over 100 µM and the GI50 [53] was over 100 µM. For the same molecule, the TGI [53] was over 100 µM, the GI50 [54] was over 100 µM and the TGI [54] was over 100 µM. The GI50 [55] was over 100 µM and the TGI [55] was over 100 µM.
